The values below are quoted from earlier work in US20100098759A1, “CONTROLLED-RELEASE PREPARATION CONTAINING CILOSTAZOL AND PROCESS FOR THE PREPARATION THEREOF” (AMOREPACIFIC CORPORATION;, priority 2007, published 2010).

Bounds are passed on as bounds.

`O=C1CCc2cc(OCCCCc3nnnn3C3CCCCC3)ccc2N1` [Cilostazol]: the water-solubility was not above 1 µg/mL.
